For this assay, the target named is T1, Cannabinoid-1 receptor (CB1R) (Rattus norvegicus, UniProt P20272).
T1 construct: The tissue obtained from the brain of SD rats was homogenized; from tissue; host or cells: brain of SD rats (membrane pellet of the homogenate)
The assay can be described thus: Cannabinoid-1 receptor (CB1R) binding affinity assay ([3H]CP-55940, rat CB-1 receptor binding protocol). Particulars: brain tissue of SD rats, [3H]CP-55940, 30° C. 60 min.

Like-named read-outs stand apart in the source and are kept apart here.

Our source for the IC50 values is patent US7875647B2, “Heteroaryl-pyrazole derivatives as cannabinoid CB1 receptor antagonists” (Green Cross Corporation, priority 2006, dated 2011).

T1 sequence (P20272 whole entry): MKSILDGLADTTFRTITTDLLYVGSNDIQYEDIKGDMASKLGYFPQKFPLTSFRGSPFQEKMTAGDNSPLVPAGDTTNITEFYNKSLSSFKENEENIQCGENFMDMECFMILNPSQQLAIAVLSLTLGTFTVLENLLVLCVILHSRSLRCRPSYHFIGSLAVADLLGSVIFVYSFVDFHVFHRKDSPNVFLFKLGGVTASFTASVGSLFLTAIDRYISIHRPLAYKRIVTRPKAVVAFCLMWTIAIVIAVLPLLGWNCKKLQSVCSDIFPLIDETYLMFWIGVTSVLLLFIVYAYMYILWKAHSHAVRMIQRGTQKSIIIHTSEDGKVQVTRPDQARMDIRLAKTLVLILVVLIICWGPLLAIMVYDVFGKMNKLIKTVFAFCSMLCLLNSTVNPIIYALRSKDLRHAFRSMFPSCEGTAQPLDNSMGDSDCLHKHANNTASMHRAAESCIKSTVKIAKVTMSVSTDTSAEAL

Usually IC50 stands for the concentration at which inhibition is half-maximal. For the molecule `Clc1ccc(-c2c(Cl)c(-c3nnc(C4CCCCC4)s3)nn2-c2ccc(Cl)cc2Cl)cc1` [Example 538, 2-(4-chloro-5-(4-chlorophenyl)-1-(2,4-dichlorophenyl)-1H-pyrazol-3-yl)-5-cyclohexyl-1,3,4-thiadiazole], under “read-out: IC50”, the IC50 was 653 nM.

In the case of `CCC(C)c1nnc(-c2nn(-c3ccccc3Cl)c(-c3ccc(Cl)cc3)c2C)s1` (stereo not shown) [Example 407, 2-sec-butyl-5-(1-(2-chlorophenyl)-5-(4-chlorophenyl)-4-methyl-1H-pyrazol-3-yl)-1,3,4-thiadiazole], the IC50 (read-out: IC50) was 18.4 nM.

As to `Cc1c(-c2nnc(C3CCCCC3)s2)nn(-c2ccc(Cl)cc2Cl)c1-c1ccc(Br)cc1` [Example 373, 2-(5-(4-Bromophenyl)-1-(2,4-dichlorophenyl)-4-methyl-1H-pyrazol-3-yl)-5-cyclohexyl-1,3,4-thiadiazole], the IC50 (read-out: IC50) was found to be 20.5 nM.

Take `CCC(C)c1nnc(-c2nn(-c3ccc(Cl)cc3Cl)c(-c3ccc(Cl)cc3)c2Cl)s1` (stereo not shown) [Example 539, 2-sec-butyl-5-(4-chloro-5-(4-chlorophenyl)-1-(2,4-dichlorophenyl)-1H-pyrazol-3-yl)-1,3,4-thiadiazole]: the IC50 (read-out: IC50) was 102 nM.

Consider `CCCCCn1nnnc1-c1nn(-c2ccc(Cl)cc2Cl)c(-c2ccc(Cl)cc2)c1C` [Example 573, 5-(5-(4-Chlorophenyl)-1-(2,4-dichlorophenyl)-4-methyl-1H-pyrazol-3-yl)-1-pentyl-1H-tetrazole], for which, under “read-out: IC50”, the IC50 stood at 184 nM.

In the case of `Cc1c(-c2nnc(-c3cccs3)o2)nn(-c2ccc(Cl)cc2Cl)c1-c1ccc(Cl)cc1` [Example 11, 2-(5-(4-chlorophenyl)-1-(2,4-dichlorophenyl)-4-methyl-1H-pyrazol-3-yl)-5-(thiophen-2-yl)-1,3,4-oxadiazole], the IC50 (read-out: IC50) was determined as 96.6 nM.

Take `CC(O)c1c(-c2nnc(C3(c4ccc(Cl)cc4)CC3)o2)nn(-c2ccc(Cl)cc2Cl)c1-c1ccc(Cl)cc1` (stereo not shown) [Example 209, 1-(5-(4-chlorophenyl)-3-(5-(1-(4-chlorophenyl)cyclopropyl)-1,3,4-oxadiazol-2-yl)-1-(2,4-dichlorophenyl)-1H-pyrazol-4-yl)ethanol]: the IC50 (read-out: IC50) came to 5.77 nM.

Consider `CCc1c(-c2nnc(C3(C(F)(F)F)CC3)s2)nn(-c2ccc(Cl)cc2Cl)c1-c1ccc(Cl)cc1` [Example 500, 2-(5-(4-chlorophenyl)-1-(2,4-dichlorophenyl)-4-ethyl-1H-pyrazol-3-yl)-5-(1-(trifluoromethyl)cyclopropyl)-1,3,4-thiadiazole], for which the IC50 (read-out: IC50) was 23.3 nM.

For `Cc1c(-c2nnn(C3CCCCC3)n2)nn(-c2ccc(Cl)cc2Cl)c1-c1ccc(Cl)cc1` [Example 580, 5-(5-(4-Chlorophenyl)-1-(2,4-dichlorophenyl)-4-methyl-1H-pyrazol-3-yl)-2-cyclohexyl-2H-tetrazole], the IC50 (read-out: IC50) came out at 75.8 nM.

For `CCc1c(-c2nnc(C3(c4ccc(Cl)cc4)CC3)s2)nn(-c2ccccc2Cl)c1-c1ccc(Br)cc1` [Example 464, 2-(5-(4-bromophenyl)-1-(2-chlorophenyl)-4-ethyl-1H-pyrazol-3-yl)-5-(1-(4-chlorophenyl)cyclopropyl)-1,3,4-thiadiazole], the IC50 (read-out: IC50) came out at 4.41 nM.

On to `Cc1c(-c2n[nH]c(C3CCC3)n2)nn(-c2ccc(Cl)cc2Cl)c1-c1ccc(Cl)cc1` [Example 621, 3-(5-(4-chlorophenyl)-1-(2,4-dichlorophenyl)-4-methyl-1H-pyrazol-3-yl)-5-cyclobutyl-1H-1,2,4-triazole], for which the IC50 (read-out: IC50) was found to be 348 nM.

`Cc1c(-c2nnc(CC3CCCCC3)s2)nn(-c2ccc(Cl)cc2Cl)c1-c1ccc(Cl)cc1` [Example 365, 2-(5-(4-Chlorophenyl)-1-(2,4-dichlorophenyl)-4-methyl-1H-pyrazol-3-yl)-5-(cyclohexylmethyl)-1,3,4-thiadiazole]: the 50% inhibitory concentration (IC50) (read-out: IC50) amounted to 20.4 nM.

Consider `CCc1c(-c2nnc(C(CC)CC)s2)nn(-c2ccc(Cl)cc2Cl)c1-c1ccc(Br)cc1` [Example 454, 2-(5-(4-bromophenyl)-1-(2,4-dichlorophenyl)-4-ethyl-1H-pyrazol-3-yl)-5-(pentan-3-yl)-1,3,4-thiadiazole], for which, where the note is “read-out: IC50”, the IC50 came to 23.1 nM.

As for `Cc1c(-c2nc(C3CC3)n(C(C)C)n2)nn(-c2ccc(Cl)cc2Cl)c1-c1ccc(Cl)cc1` [Example 630, 3-(5-(4-chlorophenyl)-1-(2,4-dichlorophenyl)-4-methyl-1H-pyrazol-3-yl)-5-cyclopropyl-1-isopropyl-1H-1,2,4-triazole], for the setting “read-out: IC50”, the IC50 came to 573 nM.

Regarding `CCCCc1nnc(-c2nn(-c3ccc(Cl)cc3Cl)c(-c3ccc(Cl)cc3)c2C)s1` [Example 355, 2-Butyl-5-(5-(4-chlorophenyl)-1-(2,4-dichlorophenyl)-4-methyl-1H-pyrazol-3-yl)-1,3,4-thiadiazole], the IC50 (read-out: IC50) stood at 46 nM.

In the case of `Cc1c(-c2nnc(-c3cnccn3)o2)nn(-c2ccc(Cl)cc2Cl)c1-c1ccc(Cl)cc1` [Example 10, 2-(5-(4-chlorophenyl)-1-(2,4-dichlorophenyl)-4-methyl-1H-pyrazol-3-yl)-5-(pyrazin-2-yl)-1,3,4-oxadiazole], for the setting “read-out: IC50”, the concentration for half-maximal inhibition (IC50) amounted to 196 nM.

For `CCc1c(-c2nnc(C3(c4cccc(Cl)c4)CC3)o2)nn(-c2ccc(Cl)cc2Cl)c1-c1ccc(Br)cc1` [Example 273, 2-(5-(4-bromophenyl)-1-(2,4-dichlorophenyl)-4-ethyl-1H-pyrazol-3-yl)-5-(1-(3-chlorophenyl)cyclopropyl)-1,3,4-oxadiazole], the concentration for half-maximal inhibition (IC50) (IC50(nM)) came out at 2.32 nM.

As for `COc1ccc(C2(c3nnc(-c4nn(-c5ccc(Cl)cc5Cl)c(-c5ccc(Cl)cc5)c4C)s3)CC2)cc1` [Example 458, 2-(5-(4-chlorophenyl)-1-(2,4-dichlorophenyl)-4-methyl-1H-pyrazol-3-yl)-5-(1-(4-methoxyphenyl)cyclopropyl)-1,3,4-thiadiazole], the half-inhibitory concentration (IC50) (read-out: IC50) was 25.8 nM.

`CCc1c(-c2nnc(C3(c4ccc(C)cc4)CC3)s2)nn(-c2ccc(Cl)cc2Cl)c1-c1ccc(Cl)cc1` [Example 480, 2-(5-(4-chlorophenyl)-1-(2,4-dichlorophenyl)-4-ethyl-1H-pyrazol-3-yl)-5-(1-p-tolylcyclopropyl)-1,3,4-thiadiazole]: the IC50 (read-out: IC50) is 5.08 nM.

As to `CC(C)c1c(-c2nnc(C3(c4ccc(Cl)cc4)CC3)o2)nn(-c2ccc(Cl)cc2Cl)c1-c1ccc(Cl)cc1` [Example 181, 2-(5-(4-chlorophenyl)-1-(2,4-dichlorophenyl)-4-isopropyl-1H-pyrazol-3-yl)-5-(1-(4-chlorophenyl)cyclopropyl)-1,3,4-oxadiazole], the half-maximal inhibitory concentration (IC50) (read-out: IC50) worked out at 9.72 nM.

Take `CCCC(C)c1nnc(-c2nn(-c3ccc(Cl)cc3Cl)c(-c3ccc(Cl)cc3)c2C)s1` (stereo not shown) [Example 368, 2-(5-(4-Chlorophenyl)-1-(2,4-dichlorophenyl)-4-methyl-1H-pyrazol-3-yl)-5-(pentan-2-yl)-1,3,4-thiadiazole]: the IC50 (read-out: IC50) worked out at 13.4 nM.

On to `Cc1c(-c2nnnn2Cc2ccco2)nn(-c2ccc(Cl)cc2Cl)c1-c1ccc(Cl)cc1` [Example 593, 5-(5-(4-Chlorophenyl)-1-(2,4-dichlorophenyl)-4-methyl-1H-pyrazol-3-yl)-1-(furan-2-ylmethyl)-1H-tetrazole], for which the IC50 (read-out: IC50) amounted to 53.8 nM.

With `Cc1nnc(-c2nn(-c3ccc(Cl)cc3Cl)c(-c3ccc(Cl)cc3)c2C)s1` [Example 360, 2-(5-(4-chlorophenyl)-1-(2,4-dichlorophenyl)-4-methyl-1H-pyrazol-3-yl)-5-methyl-1,3,4-thiadiazole], under “read-out: IC50”, the IC50 was determined as 97.2 nM.

For `CCCc1nc(-c2nn(-c3ccc(Cl)cc3Cl)c(-c3ccc(Cl)cc3)c2C)n[nH]1` [Example 617, 3-(5-(4-chlorophenyl)-1-(2,4-dichlorophenyl)-4-methyl-1H-pyrazol-3-yl)-5-propyl-1H-1,2,4-triazole], under “read-out: IC50”, the IC50 was 523 nM.

Turning to `Cc1c(-c2nnc(C(C)(C)C3CCCC3)s2)nn(-c2ccc(Cl)cc2Cl)c1-c1ccc(Cl)cc1` [Example 393, 2-(5-(4-chlorophenyl)-1-(2,4-dichlorophenyl)-4-methyl-1H-pyrazol-3-yl)-5-(2-cyclopentylpropan-2-yl)-1,3,4-thiadiazole], the IC50 (read-out: IC50) is 19.5 nM.

In the case of `Cc1c(-c2nnc(C3(c4cccc(Cl)c4)CC3)o2)nn(-c2ccc(Cl)cc2Cl)c1-c1ccc(Cl)cc1` [Example 257, 2-(5-(4-chlorophenyl)-1-(2,4-dichlorophenyl)-4-methyl-1H-pyrazol-3-yl)-5-(1-(3-chlorophenyl)cyclopropyl)-1,3,4-oxadiazole], the IC50 (read-out: IC50) was determined as 11.3 nM.

In the case of `CC(C)(C)c1nnc(-c2nn(-c3ccc(Cl)cc3Cl)c(-c3ccc(Cl)cc3)c2Cn2cnnn2)o1` [Example 300, 2-(4-((1H-tetrazol-1-yl)methyl)-5-(4-chlorophenyl)-1-(2,4-dichlorophenyl)-1H-pyrazol-3-yl)-5-tert-butyl-1,3,4-oxadiazole], where the note is “read-out: IC50”, the half-maximal inhibitory concentration (IC50) came out at 3.37 nM.

For `Cc1c(-c2nnc(C(C)C)s2)nn(-c2ccc(Cl)cc2Cl)c1-c1ccc(Cl)cc1` [Example 353, 2-(5-(4-chlorophenyl)-1-(2,4-dichlorophenyl)-4-methyl-1H-pyrazol-3-yl)-5-isopropyl-1,3,4-thiadiazole], the IC50 (read-out: IC50) is 21.5 nM.

Turning to `FC(F)(F)C1(c2nnc(-c3nn(-c4ccc(Cl)cc4Cl)c(-c4ccc(Cl)cc4)c3Cn3cncn3)s2)CCC1` [Example 512, 2-(4-((1H-1,2,4-triazol-1-yl)methyl)-5-(4-chlorophenyl)-1-(2,4-dichlorophenyl)-1H-pyrazol-3-yl)-5-(1-(trifluoromethyl)cyclobutyl)-1,3,4-thiadiazole], where the note is “read-out: IC50”, the IC50 came to 2.89 nM.

In the case of `CCC(C)(C)c1nnc(-c2nn(-c3ccccc3Cl)c(-c3ccc(Cl)cc3)c2C)s1` [Example 410, 2-(1-(2-chlorophenyl)-5-(4-chlorophenyl)-4-methyl-1H-pyrazol-3-yl)-5-tert-pentyl-1,3,4-thiadiazole], the concentration for half-maximal inhibition (IC50) (read-out: IC50) was found to be 11.7 nM.

For `CCc1c(-c2nnc(C3(c4ccc(Cl)cc4)CC3)o2)nn(-c2ccc(Cl)cc2Cl)c1-c1ccc(Br)cc1` [Example 111, 2-(5-(4-bromophenyl)-1-(2,4-dichlorophenyl)-4-ethyl-1H-pyrazol-3-yl)-5-(1-(4-chlorophenyl)cyclopropyl)-1,3,4-oxadiazole], the half-maximal inhibitory concentration (IC50) (read-out: IC50) turned out to be 3.96 nM.
